Reference: publication PMC9413440, “An Iterative Approach Guides Discovery of the FabI Inhibitor Fabimycin, a Late-Stage Antibiotic Candidate with In Vivo Efficacy against Drug-Resistant Gram-Negative Infections” (ACS Central Science, 2022)
Values after ≈ are worked out from the molar mass of the structure shown.

Columns and labels:
A. baumannii 19606 = test: MIC, broth microdilution (CLSI); format: cell-based; conditions: Acinetobacter baumannii
Method in brief: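 Broth microdilution per CLSI guidelines in cation-adjusted Mueller Hinton broth, run in biological triplicate unless noted otherwise.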

S. aureus ATCC 29213 = format: cell-based, Staphylococcus aureus
Protocol: Selection of resistant mutants
Resistant mutants were generated using the large inoculum method. Briefly, S. aureus 29213, E. coli MG1655, and A. baumannii 19606 (~1 x 1010 CFUs) was plated on 100-mm plates (E. coli and A. baumannii) or 150-mm plates (S. aureus) of MH agar containing either 128, 64, or 32 µg/mL fabimycin (for gram-negatives) or 0.125, 0.062, and 0.031 µg/mL fabimycin (for S. aureus). Plates were incubated at 37 °C for 48 h and counted for the presence of colony forming units.
Glycerol stocks of selected colonies were made, and resistant colonies confirmed by growing on agar plates containing the same concentration of fabimycin that they were generated at. […]
Forward 5’-GGG-GCC-AGC-GTT-TCT-TTT-TC-3‘ Parker, 20203
Reverse 5’-AAA-CAT-GGA-GAC-GGT-GCT-GG
Forward 5’-GTG-AGA-TCG-GCA-TGA-CAC-AA-3’ Lin, 20179
Reverse 5’-CTG-AAG-TCC-GCT-ACC-GTT-AT-3’
Compound stability in mammalian plasma […]
Each drug is tested […]
in duplicate. Compounds were diluted from 10 mM DMSO stocks to 1 µM in a 100 mM pH 7.4 phosphate buffer and incubated at 37 °C with 0.5 mg/mL of human, rat, or mouse plasma (BioreclamationIVT, Baltimore, MD). […]
Compound plasma protein binding […]
The standard assay involves equilibrium dialysis, in which compound is allowed to equilibrate between a protein-containing compartment from a protein-free compartment. Each

human red blood cells = test: Human red blood cell hemolysis; format: cell-based; conditions: 200 μM; 2 hours at 37 °C
Protocol: drug is tested in duplicate. Compounds were diluted from 10mM DMSO stocks to 5 µM in mouse or human plasma (BioreclamationIVT, Baltimore, MD). The dialysis plate (Rapid Equilibrium Dialysis (RED) device; Thermo Scientific, Waltham, MA) was prepared by adding pH 7.4 phosphate buffer to one chamber of the RED device and dosing solution to the other chamber. The plate was sealed with an adhesive tape and incubated at 37 °C while shaking for 4 hours. Equal volumes of post-dialysis samples were removed from both the plasma and the buffer chambers into separate microcentrifuge tubes, and equal volumes (100µL) of fresh phosphate buffer and plasma were added to the tubes, respectively. […] Percentage binding is determined using the following equation: Binding % = (Concentration of test compound in plasma at equilibrium (Cpe) – Concentration of test compound in buffer at equilibrium (Cb)) / Cpe x 100. […]
Next, 10 µL of washed erythrocyte suspension was added to each tube and sealed. […] Absorbance was measured at 540 nm. […]
from Charles River were used. […] No additional randomization was used to allocate the experimental groups; blinding was not performed for subsequent quantitation.
The MTD of a single dosage of a given compound was determined before evaluating the MTD of multiple dosages. […]
weeks (single dose). The single-dose MTDs were determined first. […]

Question: Which results are given for `Cc1c(CN(C)C(=O)/C=C/c2cnc3c(c2)CC[C@H](N)C(=O)N3)oc2ccccc12` [fabimycin]?
Answer: MIC (A. baumannii 19606): 2 µg/mL (≈ 4.94 µM); frequency of resistance (S. aureus ATCC 29213): 1.8 × 10^–10 to 5.2 × 10^–10; mutant prevention concentration (MPC) (S. aureus ATCC 29213): 0.125 µg/mL; lysis of human red blood cells (human red blood cells): nonhemolytic
